Data set [1] concerns the target M. tuberculosis topoisomerase I (Mycobacterium tuberculosis, UniProt P9WG49). The data set can be described thus: biochemical.
For another data set, the target named is T1, E. coli DNA gyrase (Escherichia coli, UniProt P0AES4+P0AES6).
T1 construct: purchased New England BioLabs
The data set can be described thus: DNA gyrase supercoiling inhibition assay. The class given is biochemical. The procedure:
DNA gyrase (obtained from New England BioLabs) supercoiling assays were carried out by mixing the compounds with 2 U of the enzyme in reaction buffer supplied by the manufacturer, followed by the addition of 300 ng of relaxed covalently closed circular DNA was for a final reaction volume of 20 μL. The samples were incubated at 37° C. for 30 minutes before being terminated by the addition of a buffer containing 5% SDS, 0.25% bromophenol blue, and 25% glycerol. The reactions were then analyzed by agarose gel electrophoresis.

The target of another data set is T2, Human topoisomerase I (Homo sapiens, UniProt P11387).
T2 construct: purchased TopoGen
T2 sequence (P11387 1-765): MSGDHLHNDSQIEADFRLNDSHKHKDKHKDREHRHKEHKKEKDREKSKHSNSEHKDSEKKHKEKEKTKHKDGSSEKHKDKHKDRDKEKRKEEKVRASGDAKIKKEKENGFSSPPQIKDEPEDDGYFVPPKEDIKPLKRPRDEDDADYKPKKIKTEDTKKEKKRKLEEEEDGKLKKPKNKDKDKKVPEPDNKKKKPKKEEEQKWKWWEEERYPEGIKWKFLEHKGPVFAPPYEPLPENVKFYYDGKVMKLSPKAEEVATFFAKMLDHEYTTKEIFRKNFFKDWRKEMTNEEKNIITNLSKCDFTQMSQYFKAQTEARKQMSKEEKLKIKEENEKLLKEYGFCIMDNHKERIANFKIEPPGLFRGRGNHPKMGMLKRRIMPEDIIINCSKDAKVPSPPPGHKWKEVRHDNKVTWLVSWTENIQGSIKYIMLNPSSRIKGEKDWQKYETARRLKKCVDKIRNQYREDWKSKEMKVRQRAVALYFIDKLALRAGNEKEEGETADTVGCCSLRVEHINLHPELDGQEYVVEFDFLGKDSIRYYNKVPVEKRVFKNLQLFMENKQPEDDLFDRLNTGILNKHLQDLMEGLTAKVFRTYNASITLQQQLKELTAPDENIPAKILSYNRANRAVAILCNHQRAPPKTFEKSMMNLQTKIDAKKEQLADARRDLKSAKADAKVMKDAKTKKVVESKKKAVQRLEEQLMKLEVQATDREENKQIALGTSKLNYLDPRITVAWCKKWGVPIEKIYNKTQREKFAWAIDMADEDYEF
Briefly: Human topoisomerase I relaxation inhibition assay. Type of data set: biochemical. On the procedure:
Human topoisomerase I (obtained from TopoGen) relaxation assays were carried out with 0.5 U of enzyme in reaction buffer supplied by the manufacturer. The enzyme was mixed with the indicated concentration of compound dissolved before 160 ng of supercoiled pBAD/Thio plasmid DNA was added in the same buffer, for a final volume of 20 μL. Following incubation at 37° C. for 30 minutes, the reactions were terminated with a buffer containing 5% SDS, 0.25% bromophenol blue, and 25% glycerol, and analyzed by agarose gel electrophoresis.

The next data set has as its target T3, Human Topoisomerase IIα (Homo sapiens, UniProt P11388).
T3 construct: purchased TopoGen
The data set can be described thus: Human topoisomerase IIα decatenation inhibition assay. Type of data set: biochemical. The procedure: Human Topoisomerase IIα (obtained from TopoGen) assays were carried out by adding the compounds to 180 ng of kinetoplast DNA (kDNA) in the buffer supplied by the manufacturer before the addition of 2 U of the enzyme. The samples were incubated for 15 minutes at 37° C. before the addition of 4 μl of stop buffer containing 5% sarkosyl, 0.0025% bromophenol blue, and 25% glycerol. The reactions were then analyzed by electrophoresis in 1% agarose gels containing 0.5 μg ml^−1 ethidium bromide before being photographed under UV light.

The target in the next data set is E. coli topoisomerase I (Escherichia coli, UniProt P06612). The data set can be described thus: Bacterial topoisomerase I relaxation activity inhibition assay (EcTopI). Type of data set: biochemical. On the procedure: The relaxation activity of bacterial topoisomerase I was assayed in a buffer containing 10 mM Tris-HCl, pH 8.0, 50 mM NaCl, 0.1 mg/mL gelatin, and 0.5 mM MgCl2. One microliter of the compounds dissolved in DMF (dimethylformamide) or solvent alone was mixed with 10 μl of the reaction buffer containing 10 ng of enzyme before the addition of 9 μl of reaction buffer containing 160 ng of supercoiled pBAD/Thio plasmid DNA purified by cesium chloride gradient as substrate. Following incubation at 37° C. for 30 min, the reactions were terminated by the addition of 4 μl of 50% glycerol, 50 mM EDTA, and 0.5% (v/v) bromophenol blue, and analyzed by agarose gel electrophoresis. The gels were stained in ethidium bromide and photographed under UV light.
E. coli topoisomerase I, sequence (P06612 whole entry): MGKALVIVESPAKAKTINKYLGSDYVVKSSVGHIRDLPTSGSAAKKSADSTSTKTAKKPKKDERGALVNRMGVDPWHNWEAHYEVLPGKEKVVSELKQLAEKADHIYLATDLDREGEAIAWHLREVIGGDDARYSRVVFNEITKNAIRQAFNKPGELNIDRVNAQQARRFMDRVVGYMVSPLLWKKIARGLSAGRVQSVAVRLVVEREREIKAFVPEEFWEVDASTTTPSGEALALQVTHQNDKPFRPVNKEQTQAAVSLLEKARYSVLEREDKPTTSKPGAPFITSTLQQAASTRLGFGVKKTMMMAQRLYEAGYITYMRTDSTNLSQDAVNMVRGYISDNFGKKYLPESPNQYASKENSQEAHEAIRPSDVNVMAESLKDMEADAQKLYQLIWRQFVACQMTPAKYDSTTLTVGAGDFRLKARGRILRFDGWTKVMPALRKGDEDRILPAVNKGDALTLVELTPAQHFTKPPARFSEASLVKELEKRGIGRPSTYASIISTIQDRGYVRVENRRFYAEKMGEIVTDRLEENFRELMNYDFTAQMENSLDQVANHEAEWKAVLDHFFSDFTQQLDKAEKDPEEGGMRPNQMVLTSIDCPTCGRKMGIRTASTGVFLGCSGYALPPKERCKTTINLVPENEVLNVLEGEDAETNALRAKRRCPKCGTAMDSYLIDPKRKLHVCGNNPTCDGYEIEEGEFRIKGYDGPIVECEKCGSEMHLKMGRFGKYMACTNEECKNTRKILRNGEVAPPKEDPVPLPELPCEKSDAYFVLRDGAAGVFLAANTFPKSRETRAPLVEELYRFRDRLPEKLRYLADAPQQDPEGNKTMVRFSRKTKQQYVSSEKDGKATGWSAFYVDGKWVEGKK

The subject of another data set is M. smegmatis mc2 155. Briefly: M. smegmatis growth inhibition (MIC). Type of data set: cell-based. As to conditions: Mycolicibacterium smegmatis, MC2155.
Another data set concerns Mtb-lux. The class given is cell-based, M. tuberculosis.
Data set [2] has as its system M. smegmatis mc2 155/pTA-noI. The data set can be described thus: microbe, parasite or virus in culture. Type of data set: cell-based. To be noted: Mycolicibacterium smegmatis, MC2155, read-out: MIC, M. smegmatis mc2 155/pTA-noI.
For a further data set, the system named is Mtb CDC1551 Mtb::lux. The data set can be described thus: microbe, parasite or virus in culture. The class given is cell-based, M. tuberculosis. As to conditions: Mycobacterium tuberculosis, 120 h; 50% reduction in luminescence signal compared to controls; 5 days.
A short description of data set [3]: Resazurin-based cytotoxicity assay. To be noted: mouse, J774 macrophages, 50% loss of viability in J774 macrophage cell line after 24 hr exposure. On the procedure:
(§1) J774 macrophages were cultured in Dulbeco's minimal essential medium (DMEM) supplemented with 10% heat inactivated fetal bovine serum. One day prior to performing the assay 2.5×10^4 cells were seeded on black 384 well. Compounds and controls (0.4% DMSO and 2% Triton X final concentrations) were added 6 hr after seeding. Survival was determined after 24 hr by resazurin reduction measurement. Addition of 0.02 mg/mL resazurin was followed by 4 hours incubation at 37° C. and subsequent fluorescence reading (530 nm/590 nm) using a Synergy H4 (BioTek) plate reader. Data are presented as a percent viability compared to the vehicle (0.4% DMSO) control with 100% being noncytotoxic.

In a further data set the test system is J774 macrophages. Briefly: Resazurin-based cytotoxicity assay. To be noted: 50% loss of viability in J774 macrophage cell line after 24 hr exposure. On the procedure: as §1
In general terms: Alamar Blue is a resazurin reagent that responds to reducing activity.

A further data set has as its system Mtb::lux. Type of data set: cell-based, M. tuberculosis. As to conditions: at higher concentrations; data not shown.
A further data set has as its system HEK. The data set can be described thus: HEK toxicity.
In another data set the target is MtbTopI (Mycobacterium tuberculosis, UniProt P9WG49). Briefly: Anisotropy assay of DNA binding by MtbTopI. To be noted: compounds at their IC50 concentrations.
For a further data set, the system named is M. smegmatis. The data set can be described thus: M. smegmatis loss of viability (viable colony counts). Type of data set: cell-based.
[4] abbreviates: Table 6, read-out: IC50 M. tuberculosis topoisomerase I.
[5] abbreviates: supercoiling, read-out: IC50 E. coli DNA gyrase.
[6] abbreviates: Table 3, read-out: MtbTopI IC50.
Setting [7] is: Table 1, individual compounds tested as crude material, read-out: EcTopI relaxation inhibition (IC50).

Structures are written as SMILES. Values after ≈ are worked out from the molar mass of the structure shown. Where two headings read alike, the source gives them in different places.

As usually defined, the IC50 is the concentration needed to halve the response being measured. Usually CC50 stands for the concentration that lowers cell viability or growth by half.

M. tuberculosis topoisomerase I, sequence (P9WG49 whole entry): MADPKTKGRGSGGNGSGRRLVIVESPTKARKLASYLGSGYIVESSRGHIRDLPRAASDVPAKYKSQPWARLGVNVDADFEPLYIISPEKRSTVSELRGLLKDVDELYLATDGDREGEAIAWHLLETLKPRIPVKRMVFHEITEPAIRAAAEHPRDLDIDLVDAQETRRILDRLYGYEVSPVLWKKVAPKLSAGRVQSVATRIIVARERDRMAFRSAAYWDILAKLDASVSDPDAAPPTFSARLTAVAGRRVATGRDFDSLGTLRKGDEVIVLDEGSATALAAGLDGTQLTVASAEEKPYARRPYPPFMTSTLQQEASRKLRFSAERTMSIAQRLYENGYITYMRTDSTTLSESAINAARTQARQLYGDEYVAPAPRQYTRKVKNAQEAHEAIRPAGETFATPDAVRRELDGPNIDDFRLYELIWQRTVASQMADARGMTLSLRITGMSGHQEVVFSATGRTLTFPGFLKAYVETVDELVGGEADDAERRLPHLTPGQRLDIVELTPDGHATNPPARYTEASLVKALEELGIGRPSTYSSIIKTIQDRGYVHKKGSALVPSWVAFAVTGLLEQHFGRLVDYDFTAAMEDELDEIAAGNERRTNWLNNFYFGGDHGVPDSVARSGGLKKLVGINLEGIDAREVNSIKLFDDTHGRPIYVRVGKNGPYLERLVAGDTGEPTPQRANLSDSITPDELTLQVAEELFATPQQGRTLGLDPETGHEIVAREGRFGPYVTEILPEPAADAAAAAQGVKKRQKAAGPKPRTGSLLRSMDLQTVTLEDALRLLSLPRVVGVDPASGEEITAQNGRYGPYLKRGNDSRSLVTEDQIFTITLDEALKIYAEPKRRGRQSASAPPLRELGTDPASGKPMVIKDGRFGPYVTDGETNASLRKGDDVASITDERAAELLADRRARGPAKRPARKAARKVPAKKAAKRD
T3 sequence (P11388 whole entry): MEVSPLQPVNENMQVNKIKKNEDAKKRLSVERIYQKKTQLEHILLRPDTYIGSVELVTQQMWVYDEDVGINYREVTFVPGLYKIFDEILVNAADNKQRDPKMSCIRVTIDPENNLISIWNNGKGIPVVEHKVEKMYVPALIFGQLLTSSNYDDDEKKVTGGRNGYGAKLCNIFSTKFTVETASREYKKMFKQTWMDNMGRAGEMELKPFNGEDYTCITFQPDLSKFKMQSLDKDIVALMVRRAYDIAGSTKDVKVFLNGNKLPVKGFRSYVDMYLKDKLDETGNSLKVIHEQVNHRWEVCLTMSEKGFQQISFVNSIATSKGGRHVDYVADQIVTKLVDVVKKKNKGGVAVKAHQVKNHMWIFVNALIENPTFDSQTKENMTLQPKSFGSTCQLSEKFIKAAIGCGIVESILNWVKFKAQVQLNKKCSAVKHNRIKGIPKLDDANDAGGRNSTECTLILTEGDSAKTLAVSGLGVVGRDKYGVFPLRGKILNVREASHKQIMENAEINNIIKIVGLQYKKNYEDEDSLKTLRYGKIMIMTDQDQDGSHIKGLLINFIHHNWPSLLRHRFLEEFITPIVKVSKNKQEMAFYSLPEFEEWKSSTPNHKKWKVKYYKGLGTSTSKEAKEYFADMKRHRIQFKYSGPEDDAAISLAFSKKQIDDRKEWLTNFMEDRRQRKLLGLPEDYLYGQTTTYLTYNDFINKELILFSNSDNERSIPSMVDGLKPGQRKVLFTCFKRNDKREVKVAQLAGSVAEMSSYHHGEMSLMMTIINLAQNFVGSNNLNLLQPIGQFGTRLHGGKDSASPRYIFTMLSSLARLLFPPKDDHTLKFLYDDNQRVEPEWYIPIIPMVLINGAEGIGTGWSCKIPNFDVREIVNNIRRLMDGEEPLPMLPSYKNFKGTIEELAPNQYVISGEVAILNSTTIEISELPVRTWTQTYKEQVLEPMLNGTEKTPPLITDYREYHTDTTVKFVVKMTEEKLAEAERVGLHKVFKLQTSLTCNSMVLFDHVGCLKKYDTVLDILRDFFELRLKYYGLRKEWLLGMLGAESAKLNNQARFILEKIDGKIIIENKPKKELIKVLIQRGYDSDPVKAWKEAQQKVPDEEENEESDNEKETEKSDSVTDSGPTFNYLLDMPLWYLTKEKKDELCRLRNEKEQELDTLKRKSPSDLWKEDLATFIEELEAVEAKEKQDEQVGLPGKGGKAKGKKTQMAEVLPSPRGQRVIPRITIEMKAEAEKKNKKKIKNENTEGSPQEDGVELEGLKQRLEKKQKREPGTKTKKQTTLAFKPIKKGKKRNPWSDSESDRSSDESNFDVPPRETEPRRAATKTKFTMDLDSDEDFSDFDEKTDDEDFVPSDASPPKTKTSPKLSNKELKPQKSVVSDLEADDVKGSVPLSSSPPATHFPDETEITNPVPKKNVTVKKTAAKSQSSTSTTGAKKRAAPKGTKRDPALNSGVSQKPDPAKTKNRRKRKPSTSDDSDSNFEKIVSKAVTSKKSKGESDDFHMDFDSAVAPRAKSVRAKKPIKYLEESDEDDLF
T1 sequence (P0AES4 whole entry, one chain of several): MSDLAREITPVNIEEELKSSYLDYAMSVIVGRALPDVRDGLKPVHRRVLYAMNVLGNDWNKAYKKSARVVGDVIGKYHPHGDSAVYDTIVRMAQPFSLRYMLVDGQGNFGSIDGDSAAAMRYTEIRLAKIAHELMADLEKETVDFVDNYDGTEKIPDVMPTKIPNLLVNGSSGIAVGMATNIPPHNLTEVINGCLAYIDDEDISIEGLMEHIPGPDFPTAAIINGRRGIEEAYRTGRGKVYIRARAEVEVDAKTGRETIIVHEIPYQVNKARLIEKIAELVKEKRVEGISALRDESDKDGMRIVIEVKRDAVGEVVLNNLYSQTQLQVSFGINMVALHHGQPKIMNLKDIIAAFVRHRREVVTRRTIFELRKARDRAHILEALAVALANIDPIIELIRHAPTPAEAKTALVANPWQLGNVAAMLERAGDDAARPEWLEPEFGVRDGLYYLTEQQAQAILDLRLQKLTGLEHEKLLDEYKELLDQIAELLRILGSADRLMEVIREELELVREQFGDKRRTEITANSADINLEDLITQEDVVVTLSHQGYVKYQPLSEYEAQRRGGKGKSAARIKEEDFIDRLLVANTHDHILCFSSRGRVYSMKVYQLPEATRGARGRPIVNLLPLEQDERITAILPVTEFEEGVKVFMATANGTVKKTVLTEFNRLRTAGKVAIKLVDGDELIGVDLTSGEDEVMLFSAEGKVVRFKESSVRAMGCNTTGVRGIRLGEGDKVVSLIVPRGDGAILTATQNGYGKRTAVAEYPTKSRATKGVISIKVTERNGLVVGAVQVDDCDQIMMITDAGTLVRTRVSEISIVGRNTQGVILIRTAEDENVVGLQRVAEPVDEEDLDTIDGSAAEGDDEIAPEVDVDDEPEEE

On to `CNCCC[C@H](CN)NC[C@@H](CCCNC(=N)N)NCCc1cccc2ccccc12` [Compound 2580-15], for which the IC50 was 0.73 µM in data set [1] (setting [4]), greater than 90 µM at E. coli DNA gyrase (setting [5]), greater than 90 µM against Human topoisomerase I and greater than 90 µM against Human Topoisomerase IIα.
On to `CCCC[C@@H](CN[C@H](CN)CCN)NCc1cccc2ccccc12` [Compound 2471-24, (S)—N2-((S)-2-(naphthalen-1-ylmethylamino)hexyl)butane-1,2,4-triamine], for which the IC50 is 10 µM on E. coli topoisomerase I; 7.5 µM in data set [1] (setting [6]); 8.4 µM with Mtb CDC1551 Mtb::lux; greater than 160 µM at E. coli DNA gyrase; greater than 160 µM at Human topoisomerase I. Further, the MIC against M. smegmatis mc2 155 was found to be 50 µM (≈ 17.1 µg/mL); in data set [2], 25 µM (≈ 8.56 µg/mL). Moreover, in the data set on Mtb-lux, the “Percent Mtb-lux killing 5 μg/mL” value amounted to 64.3%. For the same compound, the CC50 at 24 h in data set [3] was roughly 100 µM. For the same compound, the CC50 in the data set on J774 macrophages came to 101 µM. Further, the “Reduction of Mtb CFU” value in the data set on Mtb::lux was determined as 1 log. Besides, the “Percent HEK toxicity 6.25 μg/mL” value with HEK is on record as 5.4%.
`CCCC[C@@H](CN[C@@H](CN)CCCCNC)NCc1cccc2ccccc12` [Compound 2471-36]: the IC50 at E. coli topoisomerase I is 20 µM; in [1] (setting [6]) it was 15 µM; in the data set on Mtb CDC1551 Mtb::lux, 3.3 µM; against E. coli DNA gyrase, greater than 160 µM; against Human topoisomerase I, greater than 160 µM; at Human Topoisomerase IIα it was greater than 160 µM. For the same compound, the MIC with M. smegmatis mc2 155 was determined as 25 µM (≈ 9.62 µg/mL). Also, in the data set on Mtb-lux, the “Percent Mtb-lux killing 5 μg/mL” value is on record as 99.2%. Further, in [3], the CC50 at 24 h is roughly 40 µM. Moreover, the CC50 in the data set with J774 macrophages came out at 36.5 µM. Further, the “Percent HEK toxicity 6.25 μg/mL” value in the data set on HEK amounted to 15.3%.
In the case of `CNCCC[C@H](CN)NC[C@@H](Cc1ccc2ccccc2c1)NCCc1cccc2ccccc12` [Compound 2580-24], the IC50 in data set [1] (setting [4]) was 8 µM; on E. coli DNA gyrase, greater than 85 µM; against Human topoisomerase I it was greater than 85 µM; against Human Topoisomerase IIα it was greater than 85 µM.
Turning to `CNCCC[C@@H](CN[C@@H](CN)CC1CCCCC1)NCCCc1cc(C(F)(F)F)cc(C(F)(F)F)c1` [Compound 2471-64], the IC50 at E. coli topoisomerase I (setting [7]) is 160 µM.
Turning to `CNCCC[C@@H](CN[C@@H](CN)Cc1ccc2ccccc2c1)NCCc1cccc2ccccc12` [Compound 2580-33], the IC50 was 8 µM in data set [1] (setting [4]), greater than 85 µM against E. coli DNA gyrase, greater than 85 µM on Human topoisomerase I and greater than 85 µM against Human Topoisomerase IIα.
As to `CCC[C@H](CN)NC[C@@H](CCCNC(=N)N)NCCc1cccc2ccccc12` [Compound 2580-3], the IC50 in data set [1] (setting [4]) is 6 µM; on E. coli DNA gyrase (setting [5]) it was greater than 80 µM; against Human topoisomerase I, greater than 80 µM; against Human Topoisomerase IIα it was greater than 80 µM.
Regarding `CNCCCC[C@@H](CN[C@H](CN)CCCN)NCCCc1cccc(Br)c1` [Compound 2471-13], the IC50 on E. coli topoisomerase I (setting [7]) worked out at 160 µM.
With `CCCC[C@H](CN[C@@H](CN)CCCNC)NCCc1cccc2ccccc12` [Compound 2580-18], the IC50 was 3.2 µM in [1] (setting [4]), greater than 100 µM on E. coli DNA gyrase (setting [5]), greater than 100 µM at Human topoisomerase I and greater than 100 µM against Human Topoisomerase IIα.
Take `CCC[C@H](CN[C@H](CN)CCCN)NCCCc1cccc(Br)c1` [Compound 2471-19]: the IC50 at E. coli topoisomerase I (setting [7]) is 160 µM.
On the same count and under the same terms, as for `CNCCC[C@H](CN[C@@H](CN)CC1CCCCC1)NCCCc1cc(C(F)(F)F)cc(C(F)(F)F)c1` [Compound 2471-67], the figure is 160 µM.
The same measure, in the same setting: the value for `CCCC[C@H](CN[C@H](CN)CC1CCCCC1)NCCCCCC1CCCCC1` [Compound 2471-51] was 160 µM.
Turning to `CCCC[C@@H](CN[C@H](CN)CCCCNC)NCc1cccc2ccccc12` [Compound 2471-12, (S)—N6-methyl-N2-((S)-2-(naphthalen-1-ylmethylamino)hexyl)hexane-1,2,6-triamine], the IC50 at E. coli topoisomerase I came out at 7.5 µM; in data set [1] (setting [6]), 7.5 µM; in the data set with Mtb CDC1551 Mtb::lux it was 6.8 µM. Further, the MIC against M. smegmatis mc2 155 amounted to 25 µM (≈ 9.62 µg/mL); in [2] it was 12.5 µM (≈ 4.81 µg/mL). The “Percent Mtb-lux killing 5 μg/mL” value with Mtb-lux is listed as 70.9%. Further, the CC50 at 24 h in data set [3] was roughly 100 µM. Besides, the CC50 with J774 macrophages came to 104 µM. Besides, the “Effect on binding of MtbTopI to oligonucleotide substrate” value at MtbTopI is “did not inhibit”. Moreover, the “Reduction of Mtb CFU” value in the data set on Mtb::lux was determined as 1 log. In addition, the “Time course of loss of viable colony counts, control cloning vector” value with M. smegmatis is “rapid killing”. The “Percent HEK toxicity 6.25 μg/mL” value with HEK amounted to 15.2%.
On to `CNCCC[C@H](CN[C@@H](CN)CC1CCCCC1)NCC1CCC(C(C)(C)C)CC1` (some centres unmarked) [Compound 2471-68], for which the IC50 at E. coli topoisomerase I (setting [7]) is 160 µM.
On the same count and under the same terms, as for `CCCC[C@@H](CN[C@H](CN)CCCCNC)NCCCc1ccc(O)c(O)c1` [Compound 2471-11], the figure is greater than 160 µM.
